Experimental data taken from patent US8492352B2, “Polysaccharides with antithrombotic activity, including a covalent bond and an amino chain” (Sanofi, priority 2008, dated 2013).
Counter-ions that a name gives are not always drawn.

Molecular target: coagulation factor Xa, in the presence of antithrombin (Homo sapiens, UniProt P01008)
Test: in vitro model of inhibition of coagulation factor Xa in the presence of antithrombin (anti-factor Xa activity)
Assay type: biochemical
Settings: method per Herbert et al., Blood 1998, read-out: IC50 (dose for 50% inhibition), inhibition of coagulation factor Xa (converted)
Source text: The pharmacological activity of these products was in particular studied in an in vitro model of inhibition of coagulation factor Xa, in the presence of antithrombin (anti-factor Xa activity dependent on the presence of antithrombin), as described by J.-M. Herbert et al., Blood, 1998, 91, 4197-4205. In this model, the antithrombotic properties of the compounds according to the invention are confirmed.

coagulation factor Xa, in the presence of antithrombin, sequence (P01008 33-464): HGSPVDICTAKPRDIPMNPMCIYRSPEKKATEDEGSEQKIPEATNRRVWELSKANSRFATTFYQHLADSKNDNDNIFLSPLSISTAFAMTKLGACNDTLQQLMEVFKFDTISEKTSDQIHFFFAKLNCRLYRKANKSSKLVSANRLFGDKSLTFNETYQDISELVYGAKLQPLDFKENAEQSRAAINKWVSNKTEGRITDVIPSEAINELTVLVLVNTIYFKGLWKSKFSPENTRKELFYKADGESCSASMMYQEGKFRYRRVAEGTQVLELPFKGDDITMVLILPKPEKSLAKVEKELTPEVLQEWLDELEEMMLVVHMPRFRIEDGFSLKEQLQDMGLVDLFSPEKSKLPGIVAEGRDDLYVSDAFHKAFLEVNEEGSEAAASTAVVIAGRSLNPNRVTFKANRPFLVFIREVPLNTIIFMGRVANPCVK

IC50: 10.4 nM
SMILES: COC1OC(COS(=O)(=O)O)C(OC2OC(C(=O)O)C(OC3OC(COS(=O)(=O)O)C(OC4OC(C(=O)O)C(OC5OC(COS(=O)(=O)O)C(OC)C(OC)C5NC(=O)CCCCCN)C(OC)C4OC)C(OS(=O)(=O)O)C3OS(=O)(=O)O)C(OC)C2OC)C(OS(=O)(=O)O)C1OS(=O)(=O)O [compound 1, Methyl(2-[N-(6-aminohexanoyl)]-2-deoxy-3,4-di-O-methyl-6-O-sulfonato-α-D-glucopyranosyl)-(1→4)-(2,3-di-O-methyl-β-D-glucopyranosyluronic acid)-(1→4)-(2,3,6-tri-O-sulfonato-α-D-glucopyranosyl)-(1→4)-(2,3-di-O-methyl-α-L-idopyranosyluronic acid)-(1→4)-2,3,6-tri-O-sulfonato-α-D-glucopyranoside, sodium salt]
